In ChEMBL document CHEMBL1201862, “PubChem BioAssay data set” (2004) one finds IC50 and EC50 data, which are given here for 23 molecules.

The source made the active and inactive calls. A value given as a limit tells only on which side of the number the result lay.

The target of one assay is T1, Caspase-3 (Homo sapiens, UniProt P42574).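 Note: Dose-response selectivity test against caspase-3 for candidate inhibitors of sentrin-specific proteases (SENPs).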
T1 sequence (P42574 whole entry): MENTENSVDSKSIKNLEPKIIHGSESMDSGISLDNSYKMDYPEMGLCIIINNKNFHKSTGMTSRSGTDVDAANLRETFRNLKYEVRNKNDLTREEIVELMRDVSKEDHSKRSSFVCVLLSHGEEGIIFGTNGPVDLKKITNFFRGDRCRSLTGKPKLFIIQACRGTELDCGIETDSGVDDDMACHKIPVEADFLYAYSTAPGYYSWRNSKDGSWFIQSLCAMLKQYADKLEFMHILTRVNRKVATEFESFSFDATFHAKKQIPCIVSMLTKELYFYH
It counts as functional.

Assay [1] concerns the target T2, Sentrin-specific protease 7 (Homo sapiens, UniProt Q9BQF6).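 Note: Luminescence-based dose-response confirmation of ultra-high-throughput screening hits, measuring inhibition of SENP7.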
T2 sequence (Q9BQF6 whole entry): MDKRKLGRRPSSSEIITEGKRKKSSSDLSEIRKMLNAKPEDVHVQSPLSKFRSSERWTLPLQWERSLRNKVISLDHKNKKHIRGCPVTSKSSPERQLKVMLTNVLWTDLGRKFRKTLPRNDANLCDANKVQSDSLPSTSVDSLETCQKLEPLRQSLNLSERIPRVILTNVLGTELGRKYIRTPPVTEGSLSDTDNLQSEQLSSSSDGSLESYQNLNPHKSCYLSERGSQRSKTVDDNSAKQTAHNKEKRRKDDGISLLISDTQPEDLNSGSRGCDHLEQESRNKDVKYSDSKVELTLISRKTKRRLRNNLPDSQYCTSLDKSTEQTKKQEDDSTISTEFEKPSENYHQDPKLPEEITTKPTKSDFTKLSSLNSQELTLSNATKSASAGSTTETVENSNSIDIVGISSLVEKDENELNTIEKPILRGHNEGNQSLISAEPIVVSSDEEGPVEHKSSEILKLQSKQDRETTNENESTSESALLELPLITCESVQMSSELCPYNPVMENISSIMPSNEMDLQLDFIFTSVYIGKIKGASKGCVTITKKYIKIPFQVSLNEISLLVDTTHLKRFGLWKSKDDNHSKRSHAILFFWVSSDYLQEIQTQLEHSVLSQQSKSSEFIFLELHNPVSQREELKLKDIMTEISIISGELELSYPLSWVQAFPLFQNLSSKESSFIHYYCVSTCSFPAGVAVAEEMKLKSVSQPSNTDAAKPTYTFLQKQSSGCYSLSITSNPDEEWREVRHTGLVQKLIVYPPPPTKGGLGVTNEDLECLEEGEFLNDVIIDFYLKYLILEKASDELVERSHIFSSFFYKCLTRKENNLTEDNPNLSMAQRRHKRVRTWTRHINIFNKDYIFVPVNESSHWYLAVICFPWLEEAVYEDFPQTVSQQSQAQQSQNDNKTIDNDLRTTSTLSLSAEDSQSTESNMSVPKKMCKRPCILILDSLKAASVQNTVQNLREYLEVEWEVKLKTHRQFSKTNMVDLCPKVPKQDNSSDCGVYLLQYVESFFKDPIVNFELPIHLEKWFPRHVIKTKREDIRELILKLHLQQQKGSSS
The assay is classed as functional.

Assay [2] concerns the target T3, Sentrin-specific protease 6 (Homo sapiens, UniProt Q9GZR1).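 Note: Luminescence-based dose-response confirmatory assay of SENP6 inhibition, following up an ultra-high-throughput screen.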
T3 sequence (Q9GZR1 whole entry): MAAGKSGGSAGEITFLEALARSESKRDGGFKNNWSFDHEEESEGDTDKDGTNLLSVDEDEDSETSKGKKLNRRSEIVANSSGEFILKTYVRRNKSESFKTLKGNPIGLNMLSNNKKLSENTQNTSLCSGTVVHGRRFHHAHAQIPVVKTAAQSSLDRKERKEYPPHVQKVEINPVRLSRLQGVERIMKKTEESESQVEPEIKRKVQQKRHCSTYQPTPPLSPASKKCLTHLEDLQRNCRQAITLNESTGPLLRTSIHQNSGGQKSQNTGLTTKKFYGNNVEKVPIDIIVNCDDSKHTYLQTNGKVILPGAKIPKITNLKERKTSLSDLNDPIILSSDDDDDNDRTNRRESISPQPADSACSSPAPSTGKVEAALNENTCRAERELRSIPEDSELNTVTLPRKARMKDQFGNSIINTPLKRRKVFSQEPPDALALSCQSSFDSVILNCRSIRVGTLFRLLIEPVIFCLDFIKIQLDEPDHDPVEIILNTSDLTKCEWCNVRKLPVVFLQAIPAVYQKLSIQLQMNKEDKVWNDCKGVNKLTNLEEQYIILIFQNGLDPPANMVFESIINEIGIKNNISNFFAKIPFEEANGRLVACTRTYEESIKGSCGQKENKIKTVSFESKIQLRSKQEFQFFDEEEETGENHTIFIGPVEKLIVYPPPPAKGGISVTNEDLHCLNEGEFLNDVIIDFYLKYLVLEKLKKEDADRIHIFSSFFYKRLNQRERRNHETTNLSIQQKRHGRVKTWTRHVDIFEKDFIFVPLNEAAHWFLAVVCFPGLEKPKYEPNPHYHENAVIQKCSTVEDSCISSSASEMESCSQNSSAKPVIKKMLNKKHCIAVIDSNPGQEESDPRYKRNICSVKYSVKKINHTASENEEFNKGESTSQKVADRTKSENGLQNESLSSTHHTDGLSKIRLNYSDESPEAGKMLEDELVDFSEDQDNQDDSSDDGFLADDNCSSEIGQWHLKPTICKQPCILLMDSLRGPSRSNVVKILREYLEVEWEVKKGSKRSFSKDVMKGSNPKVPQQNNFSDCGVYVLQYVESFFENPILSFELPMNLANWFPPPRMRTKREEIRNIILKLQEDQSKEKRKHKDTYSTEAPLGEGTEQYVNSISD
The assay is classed as functional.

For assay [3], the target named is T4, Sentrin-specific protease 8 (Homo sapiens, UniProt Q96LD8).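 Note: luminescence read-out of SENP8 inhibition, dose-response confirmation following an ultra-high-throughput screen.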
T4 sequence (Q96LD8 whole entry): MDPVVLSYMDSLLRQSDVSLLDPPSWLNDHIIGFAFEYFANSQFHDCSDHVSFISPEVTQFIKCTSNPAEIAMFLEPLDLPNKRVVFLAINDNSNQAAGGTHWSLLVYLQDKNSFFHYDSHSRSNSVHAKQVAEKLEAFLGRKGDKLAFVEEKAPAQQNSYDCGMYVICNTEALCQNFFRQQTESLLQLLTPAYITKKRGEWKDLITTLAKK
It counts as functional.

The nature of assay [4]: cells. The assay is classed as functional, cell-based.
Assay [5] can be described thus: cells. It counts as functional, cell-based. This is another data set of the same source.
The target of assay [6] is T5, Fatty acid synthase (Homo sapiens, UniProt P49327). In words: inhibition of human FAS-TE enzyme activity – biochemical, endpoint fluorescence intensity, uHTS hits, dose response (AID 624327).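 Note: fluorescence from hydrolysis of an O-methyl fluorescein acyl ester substrate by the enzyme.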 It counts as functional.
For assay [7], the target named is T5, Fatty acid synthase. In words: inhibition of human FAS-TE enzyme activity – biochemical, kinetic fluorescence intensity, dose response (AID 624326).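 Note: rate of fluorescence rise from hydrolysis of a fluorogenic O-methyl fluorescein ester substrate.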 The assay is classed as functional.
Assay [8] in a line: cells. The assay is classed as functional, cell-based. The source holds these as a separate data set.
The target in assay [9] is T6, Trace amine-associated receptor 1 (Homo sapiens, UniProt Q96RJ0).
T6 sequence (Q96RJ0 whole entry): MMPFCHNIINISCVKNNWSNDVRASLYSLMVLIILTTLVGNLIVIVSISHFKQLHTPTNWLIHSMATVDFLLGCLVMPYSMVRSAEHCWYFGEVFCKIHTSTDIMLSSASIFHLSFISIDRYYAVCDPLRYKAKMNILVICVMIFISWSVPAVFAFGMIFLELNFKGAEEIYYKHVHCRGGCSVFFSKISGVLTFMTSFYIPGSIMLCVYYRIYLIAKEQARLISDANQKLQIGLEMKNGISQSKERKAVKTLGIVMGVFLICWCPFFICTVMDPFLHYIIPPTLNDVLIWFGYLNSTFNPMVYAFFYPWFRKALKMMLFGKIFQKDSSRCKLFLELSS
In words: Fluorescence-based cell-based high throughput dose response assay to identify agonists of the human trace amine associated receptor 1 (TAAR1). It counts as functional.

Assay [10] addresses T6, Trace amine-associated receptor 1. In words: Counterscreen for agonists of the human trace amine associated receptor 1 (hTAAR1): Fluorescence-based cell-based high throughput dose response assay to identify hTAAR1 agonist that also desensitize TAAR1 receptor response. The assay is classed as functional.
Assay [11] is described as follows: cells. The assay is classed as functional, cell-based. The source holds these as a separate data set.
Assay [12] can be described thus: Trypanosoma cruzi growth suppression in host cells – NIH3T3 host cells, beta-gal luminescence, confirmation (AID 2044).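 Note: intracellular parasites grown in NIH/3T3 mouse fibroblasts as host cells; luminescent beta-galactosidase reporter signal from transgenic T. cruzi replicating inside host cells; inhibitors lower the luminescence signal.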 It counts as functional, cell-based.
Assay [13] is described as follows: NIH3T3 cell viability loss – ATP luminescence, mouse fibroblasts, counter-screen, dose response (AID 2010).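 Note: cells exposed to compound for about 90 hours before reading.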 The assay is classed as functional, cell-based.
Assay [14] concerns the target Induced myeloid leukemia cell differentiation protein Mcl-1 (Homo sapiens, UniProt Q07820). The assay is classed as functional.
The nature of assay [15]: HEK-293T cell viability reduction – luminescence, B-cell screen hits, cytotoxicity control for BCR NF-kB inhibitor project, dose response (AID 489021).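 Note: HEK-293T cells carrying an NF-kB luciferase reporter; cells exposed to compound for about 14 hours before viability readout.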 The assay is classed as functional, cell-based.

Sequence of Induced myeloid leukemia cell differentiation protein Mcl-1 (Q07820 whole entry): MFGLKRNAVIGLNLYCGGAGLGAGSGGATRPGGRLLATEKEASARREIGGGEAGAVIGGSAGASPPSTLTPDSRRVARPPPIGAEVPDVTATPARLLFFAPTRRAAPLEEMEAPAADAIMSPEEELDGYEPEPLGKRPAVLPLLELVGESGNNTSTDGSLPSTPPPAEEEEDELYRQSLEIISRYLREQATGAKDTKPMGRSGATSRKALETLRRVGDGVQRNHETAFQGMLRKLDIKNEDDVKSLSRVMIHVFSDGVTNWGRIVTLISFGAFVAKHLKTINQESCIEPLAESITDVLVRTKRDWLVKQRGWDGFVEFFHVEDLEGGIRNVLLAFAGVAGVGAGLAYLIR
T5 sequence (P49327 whole entry): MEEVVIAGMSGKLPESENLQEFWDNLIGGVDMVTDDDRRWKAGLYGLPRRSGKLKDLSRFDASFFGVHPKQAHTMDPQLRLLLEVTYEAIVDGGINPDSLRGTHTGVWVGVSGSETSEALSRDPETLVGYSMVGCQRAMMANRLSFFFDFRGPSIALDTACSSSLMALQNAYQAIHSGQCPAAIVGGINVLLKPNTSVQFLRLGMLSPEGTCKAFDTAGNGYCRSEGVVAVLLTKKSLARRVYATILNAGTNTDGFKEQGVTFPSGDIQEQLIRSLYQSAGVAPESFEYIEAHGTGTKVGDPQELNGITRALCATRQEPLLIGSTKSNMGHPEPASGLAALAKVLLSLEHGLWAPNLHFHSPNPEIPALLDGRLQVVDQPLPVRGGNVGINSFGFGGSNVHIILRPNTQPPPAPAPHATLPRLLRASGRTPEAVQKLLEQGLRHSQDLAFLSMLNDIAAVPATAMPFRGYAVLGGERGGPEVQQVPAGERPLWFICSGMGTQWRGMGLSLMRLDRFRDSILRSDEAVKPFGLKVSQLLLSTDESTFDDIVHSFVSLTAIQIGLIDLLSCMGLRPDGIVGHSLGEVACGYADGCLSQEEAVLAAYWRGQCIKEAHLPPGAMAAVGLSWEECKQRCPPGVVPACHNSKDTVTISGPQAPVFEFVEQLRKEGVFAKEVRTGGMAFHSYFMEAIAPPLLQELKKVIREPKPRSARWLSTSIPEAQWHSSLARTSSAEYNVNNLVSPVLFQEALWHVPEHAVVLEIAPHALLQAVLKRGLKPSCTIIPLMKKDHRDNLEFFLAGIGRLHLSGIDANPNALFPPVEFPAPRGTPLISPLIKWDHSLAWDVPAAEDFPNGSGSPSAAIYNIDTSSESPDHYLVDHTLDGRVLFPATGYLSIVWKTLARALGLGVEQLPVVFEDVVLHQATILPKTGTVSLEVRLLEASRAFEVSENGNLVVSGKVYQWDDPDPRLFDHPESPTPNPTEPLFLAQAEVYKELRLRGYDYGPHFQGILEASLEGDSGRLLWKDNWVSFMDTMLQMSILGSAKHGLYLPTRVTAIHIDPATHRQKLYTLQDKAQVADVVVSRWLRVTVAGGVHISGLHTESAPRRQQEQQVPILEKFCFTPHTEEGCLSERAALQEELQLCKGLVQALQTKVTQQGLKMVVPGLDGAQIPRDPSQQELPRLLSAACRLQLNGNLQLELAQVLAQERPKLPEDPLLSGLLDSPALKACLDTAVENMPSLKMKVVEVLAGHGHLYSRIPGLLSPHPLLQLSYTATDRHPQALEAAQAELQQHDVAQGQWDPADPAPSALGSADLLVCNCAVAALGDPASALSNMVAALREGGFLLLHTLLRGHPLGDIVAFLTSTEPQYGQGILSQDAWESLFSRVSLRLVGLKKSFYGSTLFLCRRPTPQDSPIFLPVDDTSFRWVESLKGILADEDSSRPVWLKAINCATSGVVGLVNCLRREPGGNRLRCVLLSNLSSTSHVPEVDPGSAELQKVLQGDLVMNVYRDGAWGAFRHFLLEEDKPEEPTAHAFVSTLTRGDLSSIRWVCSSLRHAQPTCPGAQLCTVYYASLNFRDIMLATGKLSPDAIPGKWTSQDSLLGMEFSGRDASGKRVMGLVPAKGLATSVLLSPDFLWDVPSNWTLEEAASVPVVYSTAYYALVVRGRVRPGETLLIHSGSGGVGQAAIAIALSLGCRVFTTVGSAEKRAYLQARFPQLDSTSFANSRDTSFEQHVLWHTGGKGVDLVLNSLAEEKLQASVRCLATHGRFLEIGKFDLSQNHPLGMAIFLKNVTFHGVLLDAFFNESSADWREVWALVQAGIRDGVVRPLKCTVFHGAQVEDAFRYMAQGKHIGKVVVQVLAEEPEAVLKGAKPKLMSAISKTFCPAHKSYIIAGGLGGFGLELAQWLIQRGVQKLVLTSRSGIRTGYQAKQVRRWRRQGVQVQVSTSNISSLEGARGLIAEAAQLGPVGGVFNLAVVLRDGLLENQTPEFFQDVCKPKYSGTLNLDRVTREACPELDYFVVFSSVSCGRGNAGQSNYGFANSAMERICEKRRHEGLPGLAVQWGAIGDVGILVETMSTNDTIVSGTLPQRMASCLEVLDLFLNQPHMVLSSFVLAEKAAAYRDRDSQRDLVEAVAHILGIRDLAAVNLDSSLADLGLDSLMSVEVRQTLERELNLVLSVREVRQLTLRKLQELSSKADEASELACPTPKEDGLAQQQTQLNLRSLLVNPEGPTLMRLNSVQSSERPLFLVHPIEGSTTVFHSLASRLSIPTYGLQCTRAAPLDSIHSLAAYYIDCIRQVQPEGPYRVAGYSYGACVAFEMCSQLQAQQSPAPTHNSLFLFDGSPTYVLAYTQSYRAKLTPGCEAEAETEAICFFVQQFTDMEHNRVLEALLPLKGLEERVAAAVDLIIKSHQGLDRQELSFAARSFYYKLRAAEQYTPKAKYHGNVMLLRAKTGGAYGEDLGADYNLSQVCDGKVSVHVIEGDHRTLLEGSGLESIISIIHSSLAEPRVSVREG

On to `COCC(C)n1c(C)cc(C(=O)COC(=O)c2n[nH]c3ccccc23)c1C` (stereo unspecified), for which the half-maximal inhibitory concentration (IC50) (as a rule, the concentration needed to halve the response being measured) at Caspase-3 was 16.8 µM (active); in assay [1], 7.13 µM (active); in assay [2], 24.3 µM (active); in assay [3], 42.9 µM (active).

As for `CC(C)C(=O)N1CCN(c2nc3ccc(Cl)cc3s2)CC1`, the EC50 in the assay “cells [4]” and in “cells [5]” was > 350 µM (not active) each time.

Turning to `O=C(CCN1C(=O)/C(=C\c2ccccc2Cl)SC1=S)Nc1cccnc1`, the IC50 at Fatty acid synthase [6] is 7.21 µM (active); on Fatty acid synthase [7], 6.84 µM (active).

With `O=C(O)c1cccc(NC(=O)c2cccc(S(=O)(=O)Nc3cccc([N+](=O)[O-])c3)c2)c1`, the IC50 was 19.2 µM (active) on Caspase-3, 5.29 µM (active) in [1], 9.02 µM (active) in [2] and 11.9 µM (active) in assay [3].

Consider `O=C(COC(=O)c1cc([N+](=O)[O-])ccc1NCCO)Nc1ccc2c(c1)OCO2`, for which the 50% inhibitory concentration (IC50) at Fatty acid synthase [6] is 2.69 µM (active); on Fatty acid synthase [7], 4.51 µM (active).

Turning to `O=C(CC1C(=O)NCCN1CCCc1ccccc1)NCCc1ccccc1Cl` (stereo unspecified), the figures for the IC50 (in “cells [8]”; in [10]) were > 29.9 µM (inactive) and 5.21 µM (active), respectively. The values for the EC50 (in assay [9]; in “cells [11]”) were 1.51 µM (active) and > 29.9 µM (inactive), respectively.

On to `Cc1nc(Cl)sc1C(=O)Nc1ccc2ccccc2c1`, for which the IC50 on Caspase-3 is 22.7 µM (active); in [1], 7.54 µM (active); in assay [2] it was 23.9 µM (active); in assay [3] it was 29.8 µM (active).

Take `COc1ccccc1N1CN(CCc2ccccc2)CN=C1S`: the IC50 in “cells [8]” is > 29.9 µM (inactive); in assay [10], 6.11 µM (active). Further, the EC50 (commonly the concentration that produces a half-maximal response) in [9] was 1.28 µM (active); in the assay “cells [11]” it was > 29.9 µM (inactive).

`[O-][Cl+3]([O-])([O-])[O-].c1ccc(-c2ccc(-c3n(-c4ccccn4)c4ccccc4[n+]3-c3ccccn3)cc2)cc1`: the concentration for a half-maximal effect (EC50) in [12] is 0.832 µM (active); in assay [13] it was > 60 µM (not active). For the same molecule, the IC50 in assay [14] is > 54 µM (not active).

For the molecule `O=c1oc(-c2ccco2)nc2sc3c(c12)CCCCC3`, the half-inhibitory concentration (IC50) was 5.34 µM (active) on Fatty acid synthase [6] and 3.45 µM (active) on Fatty acid synthase [7].

Regarding `O=C(c1cc(Br)ccc1Cl)N1CCC2(CC1)OCCO2`, the half-maximal effective concentration (EC50) is > 350 µM (not active) in the assay “cells [4]” and 67 µM (active) in the assay “cells [5]”.

`O=C(NCN1CCc2ccccc2C1)c1cnccn1`: the IC50 is > 29.9 µM (inactive) in “cells [8]” and 8.03 µM (active) in assay [10]. For the same molecule, the 50% effective concentration (EC50) is 2.14 µM (active) in assay [9] and > 29.9 µM (inactive) in the assay “cells [11]”.

Consider `Cc1nnc(SC(C(=O)Nc2ccc(Cl)c([N+](=O)[O-])c2)c2ccccc2)nc1O` (stereo unspecified), for which the half-inhibitory concentration (IC50) on Fatty acid synthase [6] is 17.3 µM (active); on Fatty acid synthase [7], 15.9 µM (active).

For the molecule `Cc1ccc(C(=O)CSc2nnc(COc3cc(C)cc(C)c3)o2)cc1`, the IC50 in assay [15] is > 80 µM (inactive).

As to `O=S(=O)(Cc1cc(Cl)nc(-c2ccncc2)n1)c1ccccc1`, in assay [14], the IC50 is 6.12 µM (active).

Regarding `CNC(=O)c1cccn(Cc2ccc(C(F)(F)F)cc2)c1=O`, in assay [15], the IC50 is > 80 µM (inactive).

For `CCOC(=O)c1c(C)[nH]c(C)c1S(=O)(=O)N1c2ccccc2CC1C` (stereo unspecified), the EC50 in “cells [4]” and in “cells [5]” was > 350 µM (not active) throughout.

Consider `O=C(CSC(=S)N1CCCC1)NCCc1ccccc1`, for which the IC50 in “cells [8]” was > 29.9 µM (inactive); in assay [10] it was 1.19 µM (active). Further, the EC50 is 1.96 µM (active) in assay [9] and > 29.9 µM (inactive) in the assay “cells [11]”.

On to `O=C(Cn1cc([N+](=O)[O-])ccc1=O)N1CCc2ccccc2C1`, for which the IC50 is 3.74 µM (active) on Fatty acid synthase [6] and 5.97 µM (active) on Fatty acid synthase [7].

In the case of `COC(=O)c1ccc(COc2ccccc2/C=N/NS(=O)(=O)c2ccccc2)cc1`, the EC50 in “cells [4]” and in the assay “cells [5]” was > 350 µM (not active) throughout.

Regarding `O=C(N[C@H](C(=O)N1CCC[C@H]1C(=O)NCCc1ccccc1Cl)c1ccccc1)c1ccco1`, the IC50 (in the assay “cells [8]”; in assay [10]) was > 29.9 µM (inactive) throughout. The EC50 was 10.3 µM (inactive) in assay [9] and > 29.9 µM (inactive) in “cells [11]”.

With `OCCNc1nc(Nc2ccccc2)nc(Nc2ccccc2)n1`, the IC50 in assay [14] is 24.3 µM (not active).

As for `CC(C)c1ccc(/N=C/c2c(O)oc3ccccc3c2=O)cc1`, the IC50 at Caspase-3 was 16.9 µM (active); in [1], 3.15 µM (active); in [2] it was 30.5 µM (active); in [3], 90.6 µM (active).
